Results taken from ChEMBL document CHEMBL2440052, “Quinazolinecarboline alkaloid evodiamine as scaffold for targeting topoisomerase I and sirtuins” (Bioorg Med Chem, 2013).
Activity calls are given as the source filed them. The calls are words filed in the database; no cut-off is given here.

Key:
HepG2 = test: Cytotoxicity against human HepG2 cells at 15 uM after 72 hrs by MTT assay relative to control; assay type: functional; settings: HepG2, 72 h, values are per cent of control
MCF7 = test: Cytotoxicity against human MCF7 cells at 15 uM after 72 hrs by MTT assay relative to control; assay type: functional; settings: MCF7, 72 h, values are per cent of control
[1] = Cytotoxicity against human H460 cells after 72 hrs by MTT assay; assay type: functional, cell-based; settings: NCI-H460, 72 h
[2] = biological target: T1, NAD-dependent protein deacetylase sirtuin-1 (Homo sapiens) (UniProt Q96EB6); test: Inhibition of recombinant GST-SIRT1 (unknown origin) using KI177 as substrate at 50 uM after 45 mins by fluorescence assay
T1 sequence (whole entry): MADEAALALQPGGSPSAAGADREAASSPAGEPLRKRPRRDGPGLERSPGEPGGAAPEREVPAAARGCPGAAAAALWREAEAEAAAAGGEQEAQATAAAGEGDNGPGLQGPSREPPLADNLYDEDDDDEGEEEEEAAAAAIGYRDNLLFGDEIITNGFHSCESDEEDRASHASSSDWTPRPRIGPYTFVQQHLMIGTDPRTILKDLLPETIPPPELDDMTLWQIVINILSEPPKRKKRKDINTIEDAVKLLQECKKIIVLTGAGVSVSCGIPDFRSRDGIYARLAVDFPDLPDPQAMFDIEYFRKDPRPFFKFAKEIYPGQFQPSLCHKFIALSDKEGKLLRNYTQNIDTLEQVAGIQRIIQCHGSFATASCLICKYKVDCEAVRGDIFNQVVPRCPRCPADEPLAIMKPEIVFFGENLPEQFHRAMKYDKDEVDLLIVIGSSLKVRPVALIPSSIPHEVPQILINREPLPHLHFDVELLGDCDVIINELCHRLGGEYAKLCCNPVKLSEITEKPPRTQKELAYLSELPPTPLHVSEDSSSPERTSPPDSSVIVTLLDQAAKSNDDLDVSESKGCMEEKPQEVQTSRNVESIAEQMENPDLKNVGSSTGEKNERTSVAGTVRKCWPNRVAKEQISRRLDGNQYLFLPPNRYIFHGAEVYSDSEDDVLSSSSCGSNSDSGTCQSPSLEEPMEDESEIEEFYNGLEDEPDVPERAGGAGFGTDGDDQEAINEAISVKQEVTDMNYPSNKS

[3] = biological target: T2, NAD-dependent protein deacetylase sirtuin-2 (Homo sapiens) (UniProt Q8IXJ6); test: Inhibition of recombinant GST-SIRT2 (unknown origin) using KI179 as substrate at 200 uM after 45 mins by fluorescence assay
T2 sequence (whole entry): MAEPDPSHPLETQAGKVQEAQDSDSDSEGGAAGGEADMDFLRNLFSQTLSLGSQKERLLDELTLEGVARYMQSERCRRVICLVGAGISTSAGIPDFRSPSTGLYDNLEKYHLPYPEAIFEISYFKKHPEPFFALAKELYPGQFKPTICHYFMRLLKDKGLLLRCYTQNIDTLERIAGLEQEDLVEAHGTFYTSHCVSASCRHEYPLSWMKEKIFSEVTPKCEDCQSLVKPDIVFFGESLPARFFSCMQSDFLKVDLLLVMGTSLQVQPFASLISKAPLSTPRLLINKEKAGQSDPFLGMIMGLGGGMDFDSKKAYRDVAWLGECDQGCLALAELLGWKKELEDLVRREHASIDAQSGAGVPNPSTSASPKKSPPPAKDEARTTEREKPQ

[4] = biological target: T3, NAD-dependent protein deacetylase sirtuin-3, mitochondrial (Homo sapiens) (UniProt Q9NTG7); test: Inhibition of recombinant His-SIRT3 (unknown origin) using KI179 as substrate at 200 uM after 45 mins by fluorescence assay
T3 sequence (whole entry): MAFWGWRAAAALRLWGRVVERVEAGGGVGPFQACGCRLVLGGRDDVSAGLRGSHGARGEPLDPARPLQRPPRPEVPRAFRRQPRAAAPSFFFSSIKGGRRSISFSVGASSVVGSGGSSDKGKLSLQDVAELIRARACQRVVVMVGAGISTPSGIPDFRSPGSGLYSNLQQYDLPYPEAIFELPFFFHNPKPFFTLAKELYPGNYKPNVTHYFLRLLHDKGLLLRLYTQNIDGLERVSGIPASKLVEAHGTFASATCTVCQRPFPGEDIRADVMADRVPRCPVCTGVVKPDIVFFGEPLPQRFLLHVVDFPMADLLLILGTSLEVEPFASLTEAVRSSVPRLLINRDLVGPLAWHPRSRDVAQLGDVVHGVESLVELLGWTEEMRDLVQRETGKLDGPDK

[5] = biological target: T3, NAD-dependent protein deacetylase sirtuin-3, mitochondrial (Homo sapiens); test: Inhibition of recombinant His-SIRT3 (unknown origin) using KI179 as substrate at 168 uM after 45 mins by fluorescence assay
[6] = biological target: T4, DNA topoisomerase 1 (Homo sapiens) (UniProt P11387); test: Inhibition of human recombinant topoisomerase 1-mediated relaxation of supercoiled pBR322 at 500 uM after 60 mins by agarose gel electrophoresis
T4 sequence (whole entry): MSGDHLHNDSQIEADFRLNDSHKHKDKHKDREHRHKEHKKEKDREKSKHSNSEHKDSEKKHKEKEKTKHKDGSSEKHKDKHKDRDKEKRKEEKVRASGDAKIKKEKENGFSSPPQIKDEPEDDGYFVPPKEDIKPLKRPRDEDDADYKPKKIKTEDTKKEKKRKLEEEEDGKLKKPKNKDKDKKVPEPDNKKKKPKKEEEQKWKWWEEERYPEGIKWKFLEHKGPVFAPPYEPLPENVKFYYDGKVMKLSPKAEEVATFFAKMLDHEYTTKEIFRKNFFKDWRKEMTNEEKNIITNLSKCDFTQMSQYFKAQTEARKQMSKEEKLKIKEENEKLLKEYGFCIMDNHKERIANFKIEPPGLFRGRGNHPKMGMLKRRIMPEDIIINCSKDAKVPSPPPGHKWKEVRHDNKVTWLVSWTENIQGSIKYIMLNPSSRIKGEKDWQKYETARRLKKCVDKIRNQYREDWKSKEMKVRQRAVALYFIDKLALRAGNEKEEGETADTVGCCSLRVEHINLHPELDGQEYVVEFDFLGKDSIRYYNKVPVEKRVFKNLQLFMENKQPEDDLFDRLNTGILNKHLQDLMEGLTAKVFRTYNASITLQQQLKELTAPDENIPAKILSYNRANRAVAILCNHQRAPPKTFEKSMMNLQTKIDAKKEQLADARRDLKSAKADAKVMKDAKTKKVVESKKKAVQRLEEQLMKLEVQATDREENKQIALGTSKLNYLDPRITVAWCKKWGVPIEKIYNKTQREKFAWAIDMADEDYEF

[7] = biological target: T4, DNA topoisomerase 1 (Homo sapiens); test: Inhibition of human recombinant topoisomerase 1-mediated DNA cleavage assessed as formation of nicked DNA from supercoiled pBR322 DNA up to 100 uM after 60 mins by agarose gel electrophoresis
[8] = biological target: T4, DNA topoisomerase 1 (Homo sapiens); test: Inhibition of human recombinant topoisomerase 1-mediated relaxation of supercoiled pBR322 at 50 to 100 uM after 60 mins by agarose gel electrophoresis
[9] = biological target: T2, NAD-dependent protein deacetylase sirtuin-2 (Homo sapiens); test: Inhibition of recombinant GST-SIRT2 (unknown origin) using KI179 as substrate at 168 uM after 45 mins by fluorescence assay

inhibition [2] [%] | inhibition [3] [%] | inhibition [4] [%] | inhibition [5] [%] | inhibition [6] | inhibition [7] | inhibition [8] | inhibition [9] [%] | SMILES | viability, % of control at 15 µM (HepG2) [%] | viability, % of control at 15 µM (MCF7) [%] | IC50 [1] [µM]
 |  |  |  |  |  |  |  | CN1c2ccccc2C(=O)N2[C@@H](C(=O)N3CCOCC3)Cc3c([nH]c4ccccc34)[C@H]12 | 94 | 72 | 58.3
4.1 | 36 |  |  |  |  |  |  | CN1c2ccccc2C(=O)N2[C@H](C(=O)N3CCOCC3)Cc3c([nH]c4ccccc34)[C@@H]12 | 88 | 131 | 73
26 | 60 | 61 |  |  |  |  |  | CN1c2ccccc2C(=O)N2[C@H](C(=O)O)Cc3c([nH]c4ccccc34)[C@@H]12 | 107 | 128 | 60
4.2 |  |  | 20 | Active | inactive | inactive | 71 | CN1c2ccccc2C(=O)N2CCc3c([nH]c4ccccc34)[C@H]21 | 69 | 44 | 2.6
8.2 | 35 |  |  |  |  |  |  | CN1c2ccccc2C(=O)N2[C@H](C(=O)N3CCSCC3)Cc3c([nH]c4ccccc34)[C@@H]12 | 90 | 103 | 86.8
 |  |  |  |  |  |  |  | CN1c2ccccc2C(=O)N2[C@@H](C(=O)N3CCCCC3)Cc3c([nH]c4ccccc34)[C@H]12 | 75 | 63 | 8.5
 |  |  |  |  |  |  |  | CNC(=O)[C@H]1Cc2c([nH]c3ccccc23)[C@@H]2N(C)c3ccccc3C(=O)N12 | 101 | 108 | > 30
3.3 | 80 | 21 |  |  |  |  |  | COC(=O)[C@@H]1Cc2c([nH]c3ccccc23)[C@H]2N(C)c3ccccc3C(=O)N12 | 101 | 90 | 35
 |  |  |  |  |  |  |  | CN1CCN(C(=O)[C@H]2Cc3c([nH]c4ccccc34)[C@@H]3N(C)c4ccccc4C(=O)N23)CC1 | 91 | 74 | 55
6.5 | 46 |  |  |  |  |  |  | CN1c2ccccc2C(=O)N2[C@H](C(=O)N3CCCCC3)Cc3c([nH]c4ccccc34)[C@@H]12 | 110 | 85 | 49
 |  |  |  |  |  |  |  | CN1c2ccccc2C(=O)N2[C@@H](C(=O)N3CCSCC3)Cc3c([nH]c4ccccc34)[C@H]12 | 89 | 105 | > 100
6.4 | 62 | 26 |  |  |  |  |  | CNC(=O)[C@@H]1Cc2c([nH]c3ccccc23)[C@H]2N(C)c3ccccc3C(=O)N12 | 101 | 94 | 53
1.1 |  |  | 21 | Active | inactive | inactive | 58 | CN1c2ccccc2C(=O)N2CCc3c([nH]c4ccccc34)[C@@H]21 [EVODIAMINE] | 76 | 51 | 13.2
 |  |  |  |  |  |  |  | CN1c2ccccc2C(=O)N2[C@@H](C(=O)O)Cc3c([nH]c4ccccc34)[C@H]12 | 107 | 103 | > 30
7.8 | 78 | 17 |  |  |  |  |  | COC(=O)[C@H]1Cc2c([nH]c3ccccc23)[C@@H]2N(C)c3ccccc3C(=O)N12 | 90 | 96 | 24
5.3 | 43 |  |  |  |  |  |  | CN1CCN(C(=O)[C@@H]2Cc3c([nH]c4ccccc34)[C@H]3N(C)c4ccccc4C(=O)N23)CC1 | 83 | 68 | 66
